From patent US20250034186A1, “ANTIVIRAL COMPOUNDS” (priority 2020, published 2025)
pEC50: −log10 of the molar value.

Legend:
HEp-2 cytotoxicity assay = assay type: cell-based; details: human, HEp-2 cells (uninfected), 4-5 days
Experimental: (§1) Cytotoxicity of the compound of Formula I and compounds 1, 2, and 6 was determined in uninfected cells using the cell viability reagent in a similar fashion as described before for other cell types (Cihlar et al., Antimicrob Agents Chemother. 2008, 52(2):655-65.). HEp-2 (1.5×10^3 cells/well) and MT-4 (2×10^3 cells/well) cells were plated in 384-well plates and incubated with the appropriate medium containing 3-fold serially diluted compound ranging from 15 nM to 100,000 nM. Cells were cultured for 4-5 days at 37° C. Following the incubation, the cells were allowed to equilibrate to 25° C., and cell viability was determined by adding Cell-Titer Glo viability reagent. The mixture was incubated for 10 min, and the luminescence signal was quantified using an Envision plate reader. Untreated cell and cells treated at 2 μM puromycin (Sigma, St. Louis, MO) serve as 100% and 0% cell viability control, respectively.

MT-4 cytotoxicity assay = assay type: cell-based; details: human, MT-4 cells (uninfected), 4-5 days, read-out: CC50 MT4
Experimental: as §1

in vitro = assay type: cell-based; details: human, read-out: CC50 GALHEPG2
Experimental: The compound of Formula I and compounds 1, 2 and 6 were tested in a high-throughput 384-well assay format for cytotoxicity in galactose-adapted HepG2 cells (human liver carcinoma cell line).
Cells were diluted in media (DMEM (11966), 10% FBS, 1% NEAA, 0.2% Galactose, 1% Pyruvate, 1% Glutamax, 1% PSG) to 16.6K cells/mL and plated at 90 uL/well into 384 well poly-D-lysine coated assay plates and placed in an incubator at 37° C. and 5% CO2. Compounds were serially diluted (1:3) in 100% DMSO in 384-well plates in quadruplicate. DMSO and 2 mM Puromycin were included as negative and positive controls respectively. 24 hours after cell plating, a 384 channel pipettor was used to transfer 0.4 uL from the compound plate to the assay plate. Assay plates were returned to the incubator. After 5 days, assay plates were washed with 80 uL/well of PBS before addition of 20 μL of Cell Titer Glo. Assay plates were read on the Envision plate reader. […] CC50 values were calculated in Accord (on-line tool) using a one-site dose-response model to generate sigmoidal curve fits.

[1] = NRVM neonatal rat cardiomyocyte cytotoxicity assay; assay type: cell-based; details: freshly harvested neonatal cardiomyocytes (NRVM)
Experimental: Compounds were tested in a high-throughput 384-well assay format for cytotoxicity against freshly harvested neonatal rat cardiomyocytes (NRVM). Cells were diluted in media (DMEM+10% FBS+1% PSG+1% NEAA) to 25,000 cells/mL, plated at 90 ul per well in 384 well cell assay plates and incubated overnight at 37° C. and 5% CO2 before compound addition. Compounds were prepared by serial dilution (1:3) in 100% DMSO in 384-well plates in quadruplicate. 400 nL/well of compound were transferred into cell assay plates via Biocel (Agilent Technologies). DMSO and 2 mM Puromycin were included as negative and positive controls respectively. After 5 days, plates are washed 1× w/ 100 ul/well PBS with Biotek plate washer, and 20 μL of Cell Titer Glo was added to each well. Plates were incubated 10 min and read on EnVision reader (Perkin Elmer). […] CC50 values were calculated in Accord (on-line tool) using a one-site dose-response model to generate sigmoidal curve fits.

PBMC cytotoxicity assay = assay type: cell-based; details: human, cryopreserved PBMCs
Experimental: Compounds were tested in a high-throughput 384-well assay format for cytotoxicity in cryopreserved human PBMCs. Compounds were serially diluted (1:3) in 100% DMSO in 384-well plates in quadruplicate. An acoustic dispenser was used to transfer 310 nL of compound into assay plates. DMSO and 2 mM Puromycin were included as negative and positive controls respectively. Cells were diluted in media (RPMI+10% FBS+1% PSG+10 mM Hepes+1% Pyruvate+0.1% BMe) to 72K cells/mL and allowed to rest for 4 hours in an incubator at 37° C. and 5% CO2 before plating into prespotted assay plates at 70 uL/well. After 5 days, 25 μL of Cell Titer Glo was added to the assay plates. […] CC50 values were calculated in Accord (on-line tool) using a one-site dose-response model to generate sigmoidal curve fits.

[2] = Stability assay in cynomolgus monkey hepatic S9 fractions; assay type: in vitro ADME; details: 37° C., NADPH and UDPGA, read-out: Cyno HepS9 t1/2
Experimental: For S9 stability, the compounds were incubated at 2 μM in cynomolgus monkey or human hepatic S9 fractions for up to 90 min at 37° C. in the presence of NADPH and UDPGA (Phase I and Phase II cofactor, Sigma-Aldrich). At desired time points following compound addition, samples were quenched with 9 volumes of an aqueous solution containing internal standard, 50% acetonitrile and 25% methanol. Sample plates were centrifuged at 3000 g for 30 min, and 10 μL of the resulting solution was analyzed by LC-MS/MS. Data (analyte to internal standard peak area ratio) were plotted on a semi log scale and fitted using an exponential fit. The half-life (T1/2) was determined assuming first order kinetics.

HRV1a = assay: HRV1A HeLa EC50; assay type: cell-based, human rhinovirus; details: for pEC50: Human rhinovirus sp., HRV1A, HeLa, 96 h, read-out: HRV1A HeLa EC50
Experimental: H1-HeLa cells, cultured in complete RPMI 1640 medium containing 10% heat-inactivated FBS and 1% Penicillin/Streptomycin, were seeded in 96 well plates at 5000 cells/well one day prior to compound dosing and infection. The antiviral activity of each compound was measured in triplicate. Compounds were added directly to the cell cultures in serial 3-fold dilutions using the HP300 digital dispenser (Hewlett Packard, Palo Alto, CA) immediately prior to infection. The plates were transferred to BSL-2 containment and 100 μL of 1/4000 dilution of HRV1a virus stock was added to each well containing cells and serially diluted compounds. Each plate included 6 wells of infected untreated cells and 6 wells of cells containing 5 μM Rupintrivir that served as 0% and 100% virus inhibition control, respectively. Following the infection, test plates were incubated for 96 h in a tissue culture incubator set to 37° C./5% CO2. Following incubation, the H1-HeLa cells were removed from incubation and allowed to equilibrate to 25° C. Cell viability was determined by removing 100 μL of culture medium and adding 100 μL of Cell-Titer Glo viability reagent. The mixtures were incubated on a shaker for 10 minutes at 25° C., and the luminescence signal was quantified on an Envision luminescence plate reader.

| SMILES | CC50 (HEp-2 cytotoxicity assay) [µM] | CC50 (MT-4 cytotoxicity assay) [µM] | CC50 at 5 days (in vitro) [µM] | CC50 at 5 days [1] [µM] | CC50 at 5 days (PBMC cytotoxicity assay) [µM] | half-life at 2 μM [2] [min] | pEC50 (HRV1a) | times more potent relative to compound 1, HRV1A HeLa (HRV1a; EC50 ratio vs compound 1) [times] | times more potent compared to compound 2, HRV1A HeLa (HRV1a; EC50 ratio vs compound 2) | times more potent relative to compound 3, HRV1A HeLa (HRV1a; EC50 ratio vs compound 3) | times more potent relative to compound 5, HRV1A HeLa (HRV1a; EC50 ratio vs compound 5) |
| --- | --- | --- | --- | --- | --- | --- | --- | --- | --- | --- | --- |
| CCC(CC)COC(=O)[C@H](C)N[P@](=O)(OC[C@@]1(C#N)O[C@@H](c2ccc3c(N)ncnn23)[C@H](O)[C@@H]1O)Oc1ccccc1 [Compound 6, 2-ethylbutyl ((S)-(((2R,3S,4R,5S)-5-(4-aminopyrrolo[2,1-f][1,2,4]triazin-7-yl)-2-cyano-3,4-dihydroxytetrahydrofuran-2-yl)methoxy)(phenoxy)phosphoryl)alaninate] | > 95 | 38.8 | > 88.9 | 8.09 | 4.79 | 2 |  |  |  |  |  |
| CCOC(=O)[C@H](C)NP(=O)(OC[C@@]1(C#N)O[C@@H](c2ccc3c(N)ncnn23)[C@H](O)[C@@H]1O)Oc1ccccc1 (stereo partly drawn) [Compound 1, reference compound] | > 91.5 | 52.4 | > 44.4 | > 44.4 | 18.2 |  | 6.39 |  |  |  |  |
| CCC(CC)COC(=O)[C@H](C)NP(=O)(OC[C@@]1(C#N)O[C@@H](c2ccc3c(N)ncnn23)[C@H](O)[C@@H]1O)Oc1ccccc1 (stereo partly drawn) [Compound 2, reference compound] | > 95.4 | > 43.7 | > 44.4 | > 44.4 | 4.65 | 3 | 7.01 |  |  |  |  |
| C[C@H](N[P@](=O)(OC[C@@]1(C#N)O[C@@H](c2ccc3c(N)ncnn23)[C@H](O)[C@@H]1O)Oc1ccccc1)C(=O)OC1CCCCC1 [Formula I, cyclohexyl ((S)-(((2R,3S,4R,5S)-5-(4-aminopyrrolo[2,1-f][1,2,4]triazin-7-yl)-2-cyano-3,4-dihydroxytetrahydrofuran-2-yl)methoxy)(phenoxy)phosphoryl)-L-alaninate] | > 100 | 56.2 | > 88.9 | 27.7 | > 31.6 | 26 | 8.10 | ~51.1 | about 12.1 times | about 91.9 times | about 203.1 times |
